Data reported in article PMC8037910, “Effect of Chronic Administration of 5-(3-chlorophenyl)-4-Hexyl-2,4 -Dihydro-3H-1,2,4-Triazole-3-Thione (TP-315)—A New Anticonvulsant Drug Candidate—On Living Organisms” (International Journal of Molecular Sciences, 2021).
Like-named read-outs stand apart in the source and are kept apart here.

Tests used:
[1] = test system: Albino Swiss mice; test: Morphological blood parameters after chronic administration; type: in vivo; conditions: 47.6 mg/kg i.p. for 14 days
Method: (§1) The experiments were carried out on adult male Albino Swiss mice weighing 20 ± 5 g. […] The mice from the control group (8 mice) received 0.9% NaCl solution i.p. once daily for 14 days.
(§2) After completion of the experimental procedure (on the 15th day—24h after the last injection), the animals were decapitated. Their livers and kidneys were collected for histopathological examination, while blood was drawn for biochemical and morphological tests and for HPLC-FL determination of TP-315 in serum.
(§3) For the determination of biochemical parameters (ALT, AST, GGT, creatinine, urea), whole blood was collected in clotting activator tubes (Sarstadt, Nümbrecht, Germany). To obtain serum, blood tubes were centrifuged at 4200 RPM for 10 min. Biochemical determinations were performed on an ERBA XL 640 analyzer (ERBA Mannheim, Germany) according to the manufacturer’s standard procedure. Whole blood for the determination of morphological parameters was collected in ethylenediaminetetraacetic acid (EDTA) tubes (Sarstadt, Nümbrecht, Germany). Morphological parameters were determined on the MYTHIC 18 Cormay analyzer (Cormay, Lublin, Poland) according to the manufacturer’s standard procedure.

[2] = molecular target: T1, CYP2B6 (Homo sapiens, UniProt P20813); test: Vivid CYP450 screening kit, CYP2B6; type: biochemical; conditions: 0.015 μg/mL, 20 min incubation, p > 0.05
T1 construct: purchased Thermo Fisher Scientific
T1 sequence (P20813 1-491): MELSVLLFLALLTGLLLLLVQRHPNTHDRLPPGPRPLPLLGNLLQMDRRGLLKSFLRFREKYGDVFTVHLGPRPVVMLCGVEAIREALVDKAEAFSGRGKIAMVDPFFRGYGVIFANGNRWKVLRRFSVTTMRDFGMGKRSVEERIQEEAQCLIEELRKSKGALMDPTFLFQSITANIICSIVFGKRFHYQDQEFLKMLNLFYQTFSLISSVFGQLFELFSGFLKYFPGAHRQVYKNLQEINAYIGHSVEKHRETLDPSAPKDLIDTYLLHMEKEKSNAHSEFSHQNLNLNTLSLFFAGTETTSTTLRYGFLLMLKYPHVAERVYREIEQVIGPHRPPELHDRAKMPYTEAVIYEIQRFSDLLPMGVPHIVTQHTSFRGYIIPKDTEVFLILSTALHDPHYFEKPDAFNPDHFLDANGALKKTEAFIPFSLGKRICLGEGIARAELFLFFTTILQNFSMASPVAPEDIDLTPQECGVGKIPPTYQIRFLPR
Method: (§4) Possible inhibitory effect of TP-315 on the catalytic activity of human cytochrome CYP450 enzymes was tested using Vivid CYP450 screening kits (Thermo Fisher Scientific, Waltham, MA, USA) according to the manufacturer’s standard procedure (Vivid BOMCC substrate CYP2B6 blue, Vivid DBOMF substrate CYP3A4 green, Vivid DBOMF substrate CYP3A5 green, Vivid EOMCC substrate CYP2C19 blue, Vivid MOBFC substrate CYP2D6 cyan). The experiment was carried out in the endpoint test mode (reading after 20 min of incubation). The test compound was dissolved in DMSO (starting concentrations, 2.5× concentrated); to avoid the influence of the solvent on the enzyme activity, the results were compared with the solvent control. The influence of TP-315 on the activity of selected enzymes was tested at concentrations of 0.015, 0.1, 0.5, 1, 2.5, 5, and 10 μg/mL. The positive control compounds (inhibitors) were miconazole (for CYP2C19 and CYP2B6), quinidine (for CYP2D6), and ketoconazole (for CYP3A4 and CYP3A5). Inhibitor concentrations were selected according to the manufacturer’s recommendations to achieve ≥90% inhibition. All inhibitors were obtained from Sigma-Aldrich (St. Louis, MO, USA). The BioTek Synergy H1 reader (BioTek Instruments, Inc., USA) was used to read the fluorescence according to the manufacturer’s guidelines. The tests were performed in duplicate.

[3] = molecular target: T2, CYP3A4 (Homo sapiens, UniProt P08684); test: Vivid CYP450 screening kit, CYP3A4; type: biochemical; conditions: 0.015 μg/mL, 20 min incubation, p > 0.05
T2 construct: purchased Thermo Fisher Scientific
Method: as §4

[4] = molecular target: T3, CYP3A5 (Homo sapiens, UniProt P20815); test: Vivid CYP450 screening kit, CYP3A5; type: biochemical; conditions: 0.015 μg/mL, 20 min incubation, p > 0.05
T3 construct: purchased Thermo Fisher Scientific
Method: as §4

[5] = test system: Albino Swiss mice; test: Biochemical parameters of liver and renal function in serum after chronic administration; type: in vivo; conditions: 47.6 mg/kg i.p. for 14 days, unpaired t-test p > 0.05
Method: as §1, §2, §3

[6] = test system: 6 Hz psychomotor seizure model; design: method as in PMID 32253957; conditions: mice, cited from earlier work
[7] = molecular target: batrachotoxin-binding site on voltage-gated sodium channels; design: method as in PMID 25226229, PMID 30594731, PMID 28824309; conditions: read-out: Affinity towards Batrachotoxin-Binding Site on Sodium Channels IC50 ± SEM; cited from earlier work
[8] = test system: Albino Swiss mice; test: Histopathological examination of kidneys and liver after chronic administration; type: in vivo; conditions: 47.6 mg/kg i.p. for 14 days, H&E staining, vs control group
Method: as §1, §2
The kidneys and livers of mice from the control and experimental groups were subjected to histopathological evaluation. The organs were fixed in 10% buffered formalin at pH 7.2 and then fixed with increasing concentrations of alcohol solutions, acetone, and xylene in paraffin blocks using a tissue processor (Leica TP-20, Leica Biosystems, Wetzlar, Germany). 4 μm thick tissue sections cut with a sledge microtome (Leica SR-200, Leica Biosystems, Wetzlar, Germany) were transferred onto slides. The preparations for the histopathological samples were stained with hematoxylin and eosin and evaluated under a light microscope (Nikon Eclipse E-600, […]). Reagents were purchased from Sigma-Aldrich (St. Louis, MO, USA).

[9] = molecular target: T4, CYP2D6 (Homo sapiens, UniProt P10635); test: Vivid CYP450 screening kit, CYP2D6; type: biochemical; conditions: 0.015 μg/mL, 20 min incubation, p > 0.05
T4 construct: purchased Thermo Fisher Scientific
Method: as §4

[10] = test system: mice; design: method as in PMID 23291122, PMID 25226229, PMID 25090118; unit not given here; conditions: chimney test, cited from earlier work

T4 sequence (P10635 whole entry): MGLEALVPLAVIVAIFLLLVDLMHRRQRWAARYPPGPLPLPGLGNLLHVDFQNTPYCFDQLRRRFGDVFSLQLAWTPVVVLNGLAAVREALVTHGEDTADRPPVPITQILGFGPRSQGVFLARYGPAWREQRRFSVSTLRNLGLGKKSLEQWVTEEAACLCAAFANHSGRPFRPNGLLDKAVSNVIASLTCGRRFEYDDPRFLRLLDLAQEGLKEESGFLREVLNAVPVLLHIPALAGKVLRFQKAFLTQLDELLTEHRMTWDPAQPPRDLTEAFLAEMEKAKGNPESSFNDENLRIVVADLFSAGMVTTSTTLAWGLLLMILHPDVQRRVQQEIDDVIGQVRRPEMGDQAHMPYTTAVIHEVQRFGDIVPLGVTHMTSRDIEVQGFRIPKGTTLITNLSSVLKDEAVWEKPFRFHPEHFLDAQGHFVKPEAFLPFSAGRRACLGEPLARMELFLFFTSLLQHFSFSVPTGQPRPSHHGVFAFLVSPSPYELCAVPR
T2 sequence (P08684 whole entry): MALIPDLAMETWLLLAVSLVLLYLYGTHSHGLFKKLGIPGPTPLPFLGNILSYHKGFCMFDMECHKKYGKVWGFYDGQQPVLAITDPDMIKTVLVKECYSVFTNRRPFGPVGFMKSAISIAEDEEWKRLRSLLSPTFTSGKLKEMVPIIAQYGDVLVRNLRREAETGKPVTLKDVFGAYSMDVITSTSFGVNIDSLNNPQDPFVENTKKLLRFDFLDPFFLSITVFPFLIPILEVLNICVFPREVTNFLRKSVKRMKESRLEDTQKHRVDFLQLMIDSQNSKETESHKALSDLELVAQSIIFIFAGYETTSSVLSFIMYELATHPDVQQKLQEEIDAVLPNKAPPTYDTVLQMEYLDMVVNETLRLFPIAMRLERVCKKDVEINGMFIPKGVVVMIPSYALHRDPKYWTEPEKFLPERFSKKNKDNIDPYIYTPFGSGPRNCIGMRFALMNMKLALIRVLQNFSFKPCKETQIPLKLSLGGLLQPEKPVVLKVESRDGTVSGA
T3 sequence (P20815 whole entry): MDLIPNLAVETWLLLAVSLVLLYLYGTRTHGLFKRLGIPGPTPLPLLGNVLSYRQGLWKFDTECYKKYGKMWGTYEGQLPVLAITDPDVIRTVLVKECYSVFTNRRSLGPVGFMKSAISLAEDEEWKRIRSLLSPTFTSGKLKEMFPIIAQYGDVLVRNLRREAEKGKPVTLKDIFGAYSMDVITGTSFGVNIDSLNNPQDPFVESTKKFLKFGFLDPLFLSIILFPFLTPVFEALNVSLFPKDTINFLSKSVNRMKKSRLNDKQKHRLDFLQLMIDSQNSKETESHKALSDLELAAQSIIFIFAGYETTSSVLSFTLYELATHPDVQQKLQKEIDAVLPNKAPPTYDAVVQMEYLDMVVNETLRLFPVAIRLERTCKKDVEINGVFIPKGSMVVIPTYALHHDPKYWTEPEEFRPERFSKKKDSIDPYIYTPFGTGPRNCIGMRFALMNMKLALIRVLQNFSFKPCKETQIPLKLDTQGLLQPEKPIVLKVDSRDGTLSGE

## CCCCCCn1c(-c2cccc(Cl)c2)n[nH]c1=S [TP-315, 5-(3-Chlorophenyl)-4-hexyl-2,4-dihydro-3H-1,2,4-triazole-3-thione]
[1]; unpaired t-test p > 0.05
  Effect of chronic administration on hematological parameters vs control group: does not cause disturbances in the white blood cell and red cell systems
[1]; examined group, mean ± SD
  BAS, basophils: 0.44 ± 0.19%
  EOS, eosinophile: 6.54 ± 2.05%
  HCT, hematocrit: 41.08 ± 3.65%
  HGB, hemoglobin concentration: 13.88 ± 1.28 g/dL
  LYM, lymphocytes: 65.7 ± 6.96%
  MCH, mean corpuscular hemoglobin: 16.62 ± 0.38 pg
  MCHC, mean corpuscular hemoglobin concentration: 33.84 ± 0.46 g/dL
  MCV, mean corpuscular volume: 49.1 ± 20.06 µm3
  MON, monocytes: 4.04 ± 1.17%
  MPV, mean platelet volume: 5.08 ± 0.25 µm3
  NEU, neutrophils: 23.28 ± 7.19%
  PCT, plateletcrit: 0.53 ± 0.16%
  PDW, platelet distribution width: 15.24 ± 0.17
  PLT, platelet: 1034.8 ± 268.44 10*3/µL
  RBC, red blood cells: 8.37 ± 0.84 10*6/μL
  RDW-CV, red blood cell distribution width: 13.46 ± 0.56%
  RDW-SD, red blood cell distribution width standard deviation: 28.46 ± 1.36 µm3
  WBC, white blood cells: 4.25 ± 1.2 10*3/µL
[2]
  Inhibition of CYP2B6 activity compared to the control: did not statistically significantly inhibit
[3]
  Inhibition of CYP3A4 activity compared to the control: did not statistically significantly inhibit
[4]
  Inhibition of CYP3A5 activity compared to the control: did not statistically significantly inhibit
[5]
  ALT in serum vs control group: did not differ statistically significant
  AST in serum vs control group: did not differ statistically significant
  Creatinine concentration in serum vs control group: not statistically significant
  GGT in serum vs control group: did not differ statistically significant
  Urea concentration in serum vs control group: not statistically significant
[6]; pretreatment time 15 min
  Anticonvulsant Activity in 6 Hz Test ED50 ± SEM: 61.3 ± 10.1 mg/kg
[6]; pretreatment time 30 min
  Anticonvulsant Activity in 6 Hz Test ED50 ± SEM: 59.7 ± 6.8 mg/kg
[6]; pretreatment time 60 min
  Anticonvulsant Activity in 6 Hz Test ED50 ± SEM: 68.1 ± 11.0 mg/kg
[6]; pretreatment time 120 min
  Anticonvulsant Activity in 6 Hz Test ED50 ± SEM: 136.2 ± 18.3 mg/kg
[7]
  IC50: 6.21 ± 0.8 µM
[8]
  Histopathological examination of kidneys: no differences in the microscopic structure of kidneys
  Histopathological examination of liver: normal organ without pathological changes
[9]
  Inhibition of CYP2D6 activity compared to the control: did not statistically significantly inhibit
[10]; pretreatment time 15 min
  Neurotoxicity in Chimney or Rotarod (†) Tests in Mice: 462.9 ± 20.0
[10]; pretreatment time 30 min
  Neurotoxicity in Chimney or Rotarod (†) Tests in Mice: 462.9 ± 20.0
[10]; pretreatment time 60 min
  Neurotoxicity in Chimney or Rotarod (†) Tests in Mice: 456.9 ± 19.7
[10]; pretreatment time 120 min
  Neurotoxicity in Chimney or Rotarod (†) Tests in Mice: 448.1 ± 21.7
